Data as given in ChEMBL document CHEMBL1201862, “PubChem BioAssay data set” (2004).
Activity calls are given as the source filed them.

Assays:
[1] = molecular target: Eukaryotic translation initiation factor 4H (Homo sapiens, UniProt Q15056); assay: eIF4H binding inhibition – biochemical, uHTS, fluorescence polarization, translation initiation inhibitor project, primary screen (AID 2012)
[2] = molecular target: Polyadenylate-binding protein 1 (Homo sapiens, UniProt P11940); assay: blockers of PABP interaction with poly(A) – biochemical, fluorescence polarization, […] (AID 2014)
Chain of Polyadenylate-binding protein 1 (P11940 whole entry): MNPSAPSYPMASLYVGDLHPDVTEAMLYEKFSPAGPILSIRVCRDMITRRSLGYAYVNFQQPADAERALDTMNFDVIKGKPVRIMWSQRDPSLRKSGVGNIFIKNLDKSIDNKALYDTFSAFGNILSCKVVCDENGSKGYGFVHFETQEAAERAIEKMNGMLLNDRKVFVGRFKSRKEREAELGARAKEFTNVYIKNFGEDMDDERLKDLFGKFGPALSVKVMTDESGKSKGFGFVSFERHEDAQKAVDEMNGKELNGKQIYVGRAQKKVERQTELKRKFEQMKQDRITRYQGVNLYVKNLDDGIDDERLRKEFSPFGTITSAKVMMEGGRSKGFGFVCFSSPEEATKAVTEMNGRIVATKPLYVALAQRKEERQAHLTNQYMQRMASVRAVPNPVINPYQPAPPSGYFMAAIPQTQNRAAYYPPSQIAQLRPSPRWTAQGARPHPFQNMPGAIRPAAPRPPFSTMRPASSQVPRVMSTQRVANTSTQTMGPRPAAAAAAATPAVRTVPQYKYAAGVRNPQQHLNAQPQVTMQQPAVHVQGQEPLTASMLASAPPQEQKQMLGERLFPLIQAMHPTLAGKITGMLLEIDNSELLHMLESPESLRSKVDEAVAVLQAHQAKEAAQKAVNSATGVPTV

Cytochrome P450 3A4 = Cytochrome P450 3A4 (Homo sapiens, UniProt P08684); conditions: read-out: Potency;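 note: confirmatory qHTS run detecting inhibitors and substrates of CYP3A4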
Chain of Cytochrome P450 3A4 (P08684 whole entry): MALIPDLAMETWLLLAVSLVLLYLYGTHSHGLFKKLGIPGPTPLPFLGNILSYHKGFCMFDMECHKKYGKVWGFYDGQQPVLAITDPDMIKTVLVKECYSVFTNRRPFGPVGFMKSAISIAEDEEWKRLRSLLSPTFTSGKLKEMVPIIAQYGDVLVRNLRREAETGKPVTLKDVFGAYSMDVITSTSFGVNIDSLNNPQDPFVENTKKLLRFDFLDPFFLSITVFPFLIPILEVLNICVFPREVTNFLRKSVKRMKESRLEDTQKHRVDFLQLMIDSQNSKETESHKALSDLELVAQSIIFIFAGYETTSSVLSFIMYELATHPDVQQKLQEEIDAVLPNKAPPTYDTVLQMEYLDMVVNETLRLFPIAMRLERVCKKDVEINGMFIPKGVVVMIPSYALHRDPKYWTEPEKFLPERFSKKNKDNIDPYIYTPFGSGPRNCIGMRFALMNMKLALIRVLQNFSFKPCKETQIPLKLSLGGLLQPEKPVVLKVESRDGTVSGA

[3] = molecular target: Dual specificity tyrosine-phosphorylation-regulated kinase 1A (Rattus norvegicus, UniProt Q63470); assay type: biochemical, Homo sapiens
[4] = molecular target: T1, Mitochondrial peptide methionine sulfoxide reductase (Bos taurus, UniProt P54149); assay type: functional;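 note: absorbance read-out, biochemical high-throughput dose-response screen for MsrA inhibitors, confirmatory; recombinant bovine MsrA coupled to E. coli TrxB with NADPH and selenocystamine; potency is for inhibitors of MsrA activity on DMSO substrate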
T1 sequence (P54149 whole entry): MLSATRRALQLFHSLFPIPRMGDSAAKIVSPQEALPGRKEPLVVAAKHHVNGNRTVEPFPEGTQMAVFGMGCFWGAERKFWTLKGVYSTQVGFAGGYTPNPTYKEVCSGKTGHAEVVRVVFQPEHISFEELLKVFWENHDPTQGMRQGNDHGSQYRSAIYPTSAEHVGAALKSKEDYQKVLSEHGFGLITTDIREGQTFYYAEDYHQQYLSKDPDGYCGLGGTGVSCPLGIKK

Insulin-degrading enzyme = Insulin-degrading enzyme (Homo sapiens, UniProt P14735); assay: Dose Response: Fluorescence polarization-based cell-based high throughput dose response assay for inhibitors of insulin-degrading enzyme (IDE). [Related pubchem assays: 434962 (Primary screen (IDE inhibitors in singlicate)), 449730 (Counterscreen (Cytotoxicity in triplicate)), 435028 (Confirmation (IDE inhibitors in triplicate)), 434984 (Summary …; assay type: functional
Chain of Insulin-degrading enzyme (P14735 whole entry): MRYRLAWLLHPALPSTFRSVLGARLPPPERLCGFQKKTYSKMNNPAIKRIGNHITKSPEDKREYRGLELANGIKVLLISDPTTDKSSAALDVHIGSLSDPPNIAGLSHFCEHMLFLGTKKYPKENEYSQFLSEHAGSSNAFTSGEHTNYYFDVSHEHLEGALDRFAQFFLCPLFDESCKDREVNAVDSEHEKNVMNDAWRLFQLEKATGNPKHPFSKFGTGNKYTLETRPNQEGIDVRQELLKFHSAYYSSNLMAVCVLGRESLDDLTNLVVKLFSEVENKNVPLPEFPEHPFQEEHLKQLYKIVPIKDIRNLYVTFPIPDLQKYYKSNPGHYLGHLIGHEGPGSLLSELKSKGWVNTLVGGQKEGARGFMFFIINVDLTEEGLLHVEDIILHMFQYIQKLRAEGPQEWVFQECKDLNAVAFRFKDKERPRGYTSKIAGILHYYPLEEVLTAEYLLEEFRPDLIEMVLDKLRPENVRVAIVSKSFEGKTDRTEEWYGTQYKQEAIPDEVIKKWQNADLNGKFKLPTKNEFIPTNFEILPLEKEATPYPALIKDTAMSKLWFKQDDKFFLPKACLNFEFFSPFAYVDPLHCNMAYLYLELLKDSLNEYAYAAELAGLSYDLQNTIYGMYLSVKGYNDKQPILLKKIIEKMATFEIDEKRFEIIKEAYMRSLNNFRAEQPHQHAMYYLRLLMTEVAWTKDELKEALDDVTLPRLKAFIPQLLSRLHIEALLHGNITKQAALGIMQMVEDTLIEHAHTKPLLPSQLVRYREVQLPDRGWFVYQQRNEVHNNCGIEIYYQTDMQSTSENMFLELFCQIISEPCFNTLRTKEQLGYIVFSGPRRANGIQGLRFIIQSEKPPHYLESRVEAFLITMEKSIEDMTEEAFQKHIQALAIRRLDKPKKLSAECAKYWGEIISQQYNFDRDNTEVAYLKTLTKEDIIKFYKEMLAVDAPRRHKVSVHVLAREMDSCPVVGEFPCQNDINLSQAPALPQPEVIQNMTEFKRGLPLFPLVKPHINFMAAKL

[5] = Counterscreen for IDE inhibitors: Luminescence-based cell-based high throughput dose response assay to identify compounds that are cytotoxic to HEK cells. [Related pubchem assays: 434962 (Primary screen (IDE inhibitors in singlicate)), 449730 (Counterscreen (Cytotoxicity in triplicate)), 435028 (Confirmation (IDE inhibitors in triplicate)) …; assay type: functional; conditions: HEK293
[6] = molecular target: Sphingosine 1-phosphate receptor 1 (Homo sapiens, UniProt P21453); assay type: functional;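 note: Tango beta-arrestin reporter U2OS cells stimulated with S1P near its EC80; inhibitor potency meaning antagonism of receptor activation by the natural agonist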
Chain of Sphingosine 1-phosphate receptor 1 (P21453 whole entry): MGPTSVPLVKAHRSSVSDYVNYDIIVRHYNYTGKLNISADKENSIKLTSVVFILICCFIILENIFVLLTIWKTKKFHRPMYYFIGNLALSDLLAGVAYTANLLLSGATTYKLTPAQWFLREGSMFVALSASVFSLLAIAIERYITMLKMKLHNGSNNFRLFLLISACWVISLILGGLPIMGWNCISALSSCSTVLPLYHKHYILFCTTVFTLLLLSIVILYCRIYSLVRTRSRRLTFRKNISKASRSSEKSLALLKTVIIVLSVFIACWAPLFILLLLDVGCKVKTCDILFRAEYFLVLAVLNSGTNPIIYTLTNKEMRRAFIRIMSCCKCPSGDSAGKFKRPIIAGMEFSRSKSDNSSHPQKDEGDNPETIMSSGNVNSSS

Exodeoxyribonuclease V = molecular target: T2, Exodeoxyribonuclease V (Escherichia coli (strain K12), UniProt P04993+P07648+P08394); assay: RecBCD inhibition via phage-restricted bacterial growth – absorbance, V66 E. coli, mutant T4 phage, counter-screen for AddAB inhibitor project, dose response (AID 492957); assay type: functional, cell-based, Escherichia coli str. K-12 substr. MG1655
T2 sequence (P04993 whole entry): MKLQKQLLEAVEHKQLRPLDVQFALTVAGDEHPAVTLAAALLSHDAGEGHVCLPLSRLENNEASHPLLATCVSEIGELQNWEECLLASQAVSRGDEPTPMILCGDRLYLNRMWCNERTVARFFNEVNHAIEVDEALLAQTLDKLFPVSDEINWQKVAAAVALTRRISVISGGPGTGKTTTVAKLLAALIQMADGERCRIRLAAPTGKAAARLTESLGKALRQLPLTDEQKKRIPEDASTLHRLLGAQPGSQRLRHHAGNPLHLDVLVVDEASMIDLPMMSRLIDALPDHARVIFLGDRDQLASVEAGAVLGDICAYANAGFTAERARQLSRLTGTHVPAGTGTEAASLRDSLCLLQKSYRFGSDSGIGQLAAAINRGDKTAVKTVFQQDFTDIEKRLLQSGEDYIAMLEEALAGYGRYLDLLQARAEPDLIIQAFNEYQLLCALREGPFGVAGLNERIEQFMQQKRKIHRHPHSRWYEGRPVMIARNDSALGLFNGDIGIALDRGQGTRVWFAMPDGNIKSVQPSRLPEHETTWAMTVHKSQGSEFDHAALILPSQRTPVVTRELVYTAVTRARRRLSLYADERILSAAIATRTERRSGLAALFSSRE
T2 sequence (P07648 whole entry): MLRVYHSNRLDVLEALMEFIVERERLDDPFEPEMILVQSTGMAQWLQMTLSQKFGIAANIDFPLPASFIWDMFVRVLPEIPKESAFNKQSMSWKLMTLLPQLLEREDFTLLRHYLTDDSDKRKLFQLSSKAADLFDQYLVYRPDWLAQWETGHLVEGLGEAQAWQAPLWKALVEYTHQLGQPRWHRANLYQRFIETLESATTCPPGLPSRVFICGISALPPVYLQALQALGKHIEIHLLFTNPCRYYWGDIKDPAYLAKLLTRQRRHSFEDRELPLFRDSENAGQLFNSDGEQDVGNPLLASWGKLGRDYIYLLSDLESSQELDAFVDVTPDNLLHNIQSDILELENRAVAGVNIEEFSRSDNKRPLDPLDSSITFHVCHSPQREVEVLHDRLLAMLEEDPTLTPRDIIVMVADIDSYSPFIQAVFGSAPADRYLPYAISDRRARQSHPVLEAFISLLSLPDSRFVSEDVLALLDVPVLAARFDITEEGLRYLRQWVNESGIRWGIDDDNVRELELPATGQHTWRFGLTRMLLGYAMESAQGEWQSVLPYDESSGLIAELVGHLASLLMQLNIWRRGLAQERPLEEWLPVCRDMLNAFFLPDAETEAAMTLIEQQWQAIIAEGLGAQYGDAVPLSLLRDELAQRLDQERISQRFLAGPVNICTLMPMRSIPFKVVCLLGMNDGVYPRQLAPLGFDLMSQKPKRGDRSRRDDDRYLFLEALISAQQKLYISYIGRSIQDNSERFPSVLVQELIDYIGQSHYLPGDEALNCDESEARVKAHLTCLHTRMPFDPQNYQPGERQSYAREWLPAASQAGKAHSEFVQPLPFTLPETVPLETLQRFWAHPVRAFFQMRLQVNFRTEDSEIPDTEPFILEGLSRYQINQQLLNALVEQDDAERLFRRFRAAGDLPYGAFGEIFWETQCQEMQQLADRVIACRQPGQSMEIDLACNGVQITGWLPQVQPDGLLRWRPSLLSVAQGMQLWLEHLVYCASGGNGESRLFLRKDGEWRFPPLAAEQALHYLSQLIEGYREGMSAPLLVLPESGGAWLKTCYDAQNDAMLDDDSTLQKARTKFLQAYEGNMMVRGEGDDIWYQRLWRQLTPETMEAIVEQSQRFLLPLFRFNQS
T2 sequence (P08394 whole entry): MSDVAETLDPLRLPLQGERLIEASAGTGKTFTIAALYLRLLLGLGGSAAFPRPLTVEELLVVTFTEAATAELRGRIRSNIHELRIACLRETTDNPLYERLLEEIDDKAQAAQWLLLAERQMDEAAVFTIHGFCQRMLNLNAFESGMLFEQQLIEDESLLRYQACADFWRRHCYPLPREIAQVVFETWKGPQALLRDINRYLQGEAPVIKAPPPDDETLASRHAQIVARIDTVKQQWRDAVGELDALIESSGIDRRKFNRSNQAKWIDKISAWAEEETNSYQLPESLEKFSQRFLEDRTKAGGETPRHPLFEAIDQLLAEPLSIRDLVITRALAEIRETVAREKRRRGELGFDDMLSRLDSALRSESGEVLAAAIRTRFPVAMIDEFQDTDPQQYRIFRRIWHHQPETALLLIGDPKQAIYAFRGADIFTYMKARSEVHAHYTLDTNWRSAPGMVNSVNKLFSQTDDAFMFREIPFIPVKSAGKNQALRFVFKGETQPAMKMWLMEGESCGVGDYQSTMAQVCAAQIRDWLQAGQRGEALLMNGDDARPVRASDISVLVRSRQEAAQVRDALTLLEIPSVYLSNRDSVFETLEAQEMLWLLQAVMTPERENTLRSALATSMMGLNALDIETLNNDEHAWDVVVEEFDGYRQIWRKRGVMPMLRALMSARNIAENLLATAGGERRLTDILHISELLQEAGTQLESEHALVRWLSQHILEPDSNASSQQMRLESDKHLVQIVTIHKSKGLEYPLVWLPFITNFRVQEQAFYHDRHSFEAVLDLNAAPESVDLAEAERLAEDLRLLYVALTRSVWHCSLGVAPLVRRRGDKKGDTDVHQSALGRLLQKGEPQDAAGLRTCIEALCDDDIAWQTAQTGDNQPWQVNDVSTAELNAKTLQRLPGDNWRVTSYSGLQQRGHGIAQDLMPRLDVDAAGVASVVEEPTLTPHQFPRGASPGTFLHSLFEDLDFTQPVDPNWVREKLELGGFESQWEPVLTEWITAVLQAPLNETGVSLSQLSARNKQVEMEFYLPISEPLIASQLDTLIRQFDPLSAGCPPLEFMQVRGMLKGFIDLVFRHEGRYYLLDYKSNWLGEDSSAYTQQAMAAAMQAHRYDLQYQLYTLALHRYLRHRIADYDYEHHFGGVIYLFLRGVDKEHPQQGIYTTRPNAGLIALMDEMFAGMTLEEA

[7] = molecular target: T3, Sphingosine 1-phosphate receptor 4 (Homo sapiens, UniProt O95977); assay: Fluorescence dose response cell-based high throughput screening assay for antagonists of the Sphingosine 1-Phosphate Receptor 4 (S1P4). [Related pubchem assays: 1524 (Confirmation in triplicates.), 1510 (Primary screen.)]; assay type: functional
T3 sequence (O95977 whole entry): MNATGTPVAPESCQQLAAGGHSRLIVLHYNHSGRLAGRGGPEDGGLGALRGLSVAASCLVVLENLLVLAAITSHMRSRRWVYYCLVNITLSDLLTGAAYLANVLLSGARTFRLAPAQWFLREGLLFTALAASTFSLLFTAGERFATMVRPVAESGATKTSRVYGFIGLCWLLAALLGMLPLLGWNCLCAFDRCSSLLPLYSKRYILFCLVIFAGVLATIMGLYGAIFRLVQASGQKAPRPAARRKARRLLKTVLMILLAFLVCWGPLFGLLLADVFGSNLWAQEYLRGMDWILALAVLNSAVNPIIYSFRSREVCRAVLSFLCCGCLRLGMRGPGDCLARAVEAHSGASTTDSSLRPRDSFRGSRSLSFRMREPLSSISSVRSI

Beta Lactamase [8] = molecular target: T4, Beta Lactamase (Pseudomonas aeruginosa, UniProt Q932Y6); assay: BLA reporter interference, concentration series – BLA reporter cells, FRET fluorescence, artefact control for NOD2-RIPK2 interaction inhibitor project, dose response (AID 651552); assay type: functional, cell-based
T4 sequence (Q932Y6 whole entry): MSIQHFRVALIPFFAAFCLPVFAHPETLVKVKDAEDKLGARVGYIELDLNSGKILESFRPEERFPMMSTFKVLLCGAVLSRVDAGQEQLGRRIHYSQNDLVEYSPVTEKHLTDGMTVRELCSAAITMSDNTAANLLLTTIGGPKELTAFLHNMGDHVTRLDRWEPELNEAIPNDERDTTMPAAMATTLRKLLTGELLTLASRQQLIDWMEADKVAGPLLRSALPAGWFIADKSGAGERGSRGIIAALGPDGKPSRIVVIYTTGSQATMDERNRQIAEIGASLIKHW

Keap1/Nrf2 = Keap1/Nrf2 (Homo sapiens, UniProt Q14145); assay: disruptors of Keap1 binding to Nrf2 peptide – biochemical, fluorescence polarization, cherry-picked samples, dose response (AID 588683)
Chain of Keap1/Nrf2 (Q16236 whole entry): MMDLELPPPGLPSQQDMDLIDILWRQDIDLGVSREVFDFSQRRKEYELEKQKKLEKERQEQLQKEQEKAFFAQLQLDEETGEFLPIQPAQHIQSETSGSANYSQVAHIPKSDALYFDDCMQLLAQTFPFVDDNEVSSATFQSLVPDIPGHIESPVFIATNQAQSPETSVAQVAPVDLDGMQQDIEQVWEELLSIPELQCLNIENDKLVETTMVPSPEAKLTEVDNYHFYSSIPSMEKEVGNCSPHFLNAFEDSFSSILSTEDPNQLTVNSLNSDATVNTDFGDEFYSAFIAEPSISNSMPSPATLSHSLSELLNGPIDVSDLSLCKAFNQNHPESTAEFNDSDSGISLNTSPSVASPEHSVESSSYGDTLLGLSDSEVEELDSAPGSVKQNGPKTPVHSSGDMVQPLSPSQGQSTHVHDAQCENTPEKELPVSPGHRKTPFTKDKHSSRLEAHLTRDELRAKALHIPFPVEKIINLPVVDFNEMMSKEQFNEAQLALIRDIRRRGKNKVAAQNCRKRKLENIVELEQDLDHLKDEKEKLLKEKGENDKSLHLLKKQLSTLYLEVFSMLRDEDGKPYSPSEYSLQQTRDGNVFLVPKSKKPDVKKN
Chain of Keap1/Nrf2 (Q14145 whole entry): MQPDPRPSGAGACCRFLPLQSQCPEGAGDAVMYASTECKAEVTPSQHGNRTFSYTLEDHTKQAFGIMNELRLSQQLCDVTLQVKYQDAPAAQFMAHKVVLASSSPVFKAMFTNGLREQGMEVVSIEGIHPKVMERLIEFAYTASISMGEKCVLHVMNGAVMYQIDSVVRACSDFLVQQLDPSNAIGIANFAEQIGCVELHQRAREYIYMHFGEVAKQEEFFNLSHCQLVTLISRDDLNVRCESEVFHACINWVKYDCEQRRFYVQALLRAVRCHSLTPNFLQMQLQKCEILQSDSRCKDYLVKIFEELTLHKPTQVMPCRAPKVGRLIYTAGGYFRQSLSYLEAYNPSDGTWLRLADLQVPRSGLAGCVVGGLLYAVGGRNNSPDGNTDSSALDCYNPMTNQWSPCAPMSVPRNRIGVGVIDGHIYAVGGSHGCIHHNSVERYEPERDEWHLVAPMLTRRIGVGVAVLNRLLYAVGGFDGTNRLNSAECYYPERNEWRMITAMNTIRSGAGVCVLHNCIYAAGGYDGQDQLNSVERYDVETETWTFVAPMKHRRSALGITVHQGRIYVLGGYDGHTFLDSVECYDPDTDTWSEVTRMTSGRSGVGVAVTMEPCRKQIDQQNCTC

Beta Lactamase [9] = molecular target: T4, Beta Lactamase; assay: BLA reporter interference, concentration series – BLA reporter cells, FRET fluorescence, artefact control for TLR9-MyD88 binding inhibitor project, dose response (AID 588341); assay type: cell-based;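 note: cell based assay in CHO-K1 cells stably expressing beta-lactamase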
Streptococcus = assay: Luminescence Microorganism-Based Dose Response Follow up to Identify Compounds Cytotoxic to Streptococcus. [Related pubchem assays: 1677 (Project Summary), 1915, 1914, 1902 (Retest at Dose), 1900 (Counter Screen), 1662 (Primary HTS)]; assay type: functional, organism-based
[10] = HGIII-sPLA2 enzyme inhibition potency – biochemical, QFRET, IC50, dose response (AID 743457);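 note: green fluorescence rise as the enzyme cleaves BODIPY PC-A2 in liposomes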
[11] = molecular target: T5, Alkaline phosphatase, tissue-nonspecific isozyme (Homo sapiens, UniProt P05186)
T5 sequence (P05186 whole entry): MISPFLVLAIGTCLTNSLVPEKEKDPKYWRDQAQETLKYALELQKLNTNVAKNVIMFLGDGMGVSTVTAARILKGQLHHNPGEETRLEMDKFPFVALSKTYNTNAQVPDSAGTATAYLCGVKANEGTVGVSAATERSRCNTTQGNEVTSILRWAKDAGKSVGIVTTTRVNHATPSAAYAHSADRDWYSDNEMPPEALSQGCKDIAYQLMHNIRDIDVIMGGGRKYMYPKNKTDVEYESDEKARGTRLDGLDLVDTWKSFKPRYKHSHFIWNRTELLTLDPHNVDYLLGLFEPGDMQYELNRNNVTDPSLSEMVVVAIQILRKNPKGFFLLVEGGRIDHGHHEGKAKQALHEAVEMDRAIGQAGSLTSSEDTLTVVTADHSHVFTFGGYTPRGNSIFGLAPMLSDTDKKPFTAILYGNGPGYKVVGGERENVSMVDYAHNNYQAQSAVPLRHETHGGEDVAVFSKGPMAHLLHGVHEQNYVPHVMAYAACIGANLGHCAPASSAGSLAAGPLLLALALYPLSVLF

For `CCCCn1cc[n+](-c2nc3c([N+](=O)[O-])cccc3n2C)c1`, the IC50 [1] was > 100 µM (inactive) and the IC50 [2] was 4.55 µM (active).

In the case of `COc1cc2c(cc1O)CC1c3c(cc(O)c(OC)c3-2)CCN1C` (stereo unspecified), the AC50 (Cytochrome P450 3A4) is reported as 25.1 µM (inconclusive), the AC50 [3] is reported as 3.83 µM (active) and the IC50 [4] is reported as 53.9 µM (inactive).

In the case of `O=C(N/N=C/c1cccnc1)c1cccc(NC(=O)c2cccc(Br)c2)c1`, the IC50 (Insulin-degrading enzyme) is reported as 21.9 µM (not active) and the IC50 [5] is reported as 53.6 µM (not active).

With `C=CCn1c(Sc2ncc([N+](=O)[O-])s2)n[nH]c1=O` the IC50 [6] was 18.1 µM (not active), the IC50 (Exodeoxyribonuclease V) was 77.2 µM (inactive) and the IC50 [7] was 2.63 µM (active). The IC50 (Beta Lactamase [8]) was 42 µM (inactive), the AC50 (Keap1/Nrf2) was > 52 µM (inactive) and the IC50 (Beta Lactamase [9]) was > 49.8 µM (inactive).

For `O=C(c1ccc(OC(F)(F)F)cc1)n1c2ccccc2c2ccccc21`, the EC50 (Streptococcus) was > 500 µM (not active).

For `Cc1ccc(NC(S)=NNC(=O)c2nn(C)cc2Cl)cc1`, the IC50 [10] was > 122 µM (inactive) and the EC50 [11] was 61 µM (not active).
